In PMC10824152 (Journal of medicinal chemistry, 2023):

Tests used:
rat nNOS = rat nNOS (Rattus norvegicus, UniProt P29476)
human nNOS = human nNOS (Homo sapiens, UniProt P29475); conditions: ratio of Ki values versus 17

Structure (SMILES)	Loss in potency as compared to 17, rat nNOS (rat nNOS)	Lower potency than 17, human nNOS (human nNOS)
Cc1cc(CCc2cc(CCN(C)C)cc(F)c2F)nc(N)n1.Cl.Cl [Compound 19, 4-(5-(2-(Dimethylamino)ethyl)-2,3-difluorophenethyl)-6-methylpyrimidin-2-amine dihydrochloride]	438 fold	–
CN(C)CCc1cc(F)c(F)c(CCc2cc(C(F)F)cc(N)n2)c1.Cl.Cl [Compound 23, 4-(Difluoromethyl)-6-(5-(2-(dimethylamino)ethyl)-2,3-difluorophenethyl)pyridin-2-amine dihydrochloride]	–	14 fold
COc1cc(N)nc(CCc2cc(CCN(C)C)cc(F)c2F)c1.Cl.Cl [Compound 18, 6-(5-(2-(Dimethylamino)ethyl)-2,3-difluorophenethyl)-4-methoxypyridin-2-amine dihydrochloride]	5 fold	–
